In patent US20240383913A1, “THIOPHENE RING COMPOUND, PREPARATION METHOD THEREFOR AND APPLICATION THEREOF” (CENTER FOR EXCELLENCE IN MOLECULAR CELL SCIENCE, CHINESE …, priority 2021, published 2024):
Read-outs that look alike come from different tables or passages of the source.

Columns and labels:
[1] = molecular target: T1, 5-HT2A receptor (Homo sapiens (Human), UniProt P28223); test: 5-HT2A receptor β-arrestin2 BRET (recruitment); assay type: cell-based;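 further: cells co-expressing Rluc-tagged 5-HT2A receptor, GRK2 and GFP2-tagged β-arrestin2, read by BRET with coelenterazine 400a (5 µM) across graded drug concentrations in duplicate, signal reflecting β-arrestin2 membrane recruitment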
T1 sequence (P28223 whole entry): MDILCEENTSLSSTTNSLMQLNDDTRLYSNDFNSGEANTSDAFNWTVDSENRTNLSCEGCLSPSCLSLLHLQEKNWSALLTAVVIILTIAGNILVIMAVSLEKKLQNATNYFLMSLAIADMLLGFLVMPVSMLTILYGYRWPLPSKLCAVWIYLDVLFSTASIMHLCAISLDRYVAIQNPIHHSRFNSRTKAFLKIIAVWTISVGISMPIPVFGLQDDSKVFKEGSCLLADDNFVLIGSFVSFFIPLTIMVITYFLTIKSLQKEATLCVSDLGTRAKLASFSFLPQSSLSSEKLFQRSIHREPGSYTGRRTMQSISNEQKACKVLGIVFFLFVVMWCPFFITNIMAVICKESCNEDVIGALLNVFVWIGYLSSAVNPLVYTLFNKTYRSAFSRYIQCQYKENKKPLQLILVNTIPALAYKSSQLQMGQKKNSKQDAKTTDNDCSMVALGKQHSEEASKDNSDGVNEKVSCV
Procedure: (§1) To examine the downstream G protein signaling pathway mediated by 5-HT2A receptors, on the first day, a 6 cm culture dish was used for transfection with 1 μg of 5-HT2A receptors, 1 μg of Gαq containing C-terminal seaweed luciferase (Gαq-Rluc), 1 μg of Gβ3, 1 μg of Gγ9 containing C-terminal green fluorescent protein (Gγ9-GFP), and 16 μL of PEI. At the same time, in order to examine the downstream β-arrestin2 signaling pathway mediated by 5-HT2A receptors, on the first day, a 6 cm culture dish was used for transfection with 500 μg of 5-HT2A receptors containing C-terminal seaweed luciferase (5-HT2A-Rluc), 500 μg of G protein-coupled receptor kinase 2 (GRK2), 2500 μg of β-arrestin2 containing N-terminal green fluorescent protein (GFP2-ARRB2), and 14 μL of PEI. The next day, the confluent cells of a 6 cm culture dish were digested and reseeded into a 96-well plate with 100 μL of culture medium was added to each well. On the third day, the drugs were added for test. The 96-well plate was taken out from the cell incubator to decant the culture medium, 40 μL of the substrate coelenterazine 400a (final concentration of 5 μM) was added to each well, and then 20 μL of different drugs were added sequentially from left to right to ensure that the final concentration of the drug decreased gradually from bottom to top, with two replicates per treatment. Finally, the prepared samples were loaded on machine for test. The machine readout value reflected the recruitment of β-arrestin2 to the membrane or the dissociation of G protein trimer. The former indicated the degree of activation of the β-arrestin2 signaling pathway downstream of the 5-HT2A receptors, and the latter indicated the degree of activation of the G protein signaling pathway downstream of the 5-HT2A receptors.

[2] = molecular target: T1, 5-HT2A receptor; test: 5-HT2A receptor Gαq BRET (G protein trimer dissociation); assay type: cell-based; conditions: for Emax: read-out: Gαq BRET (Emax %);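 on all read-outs here: cells transfected with 5-HT2A receptor, Gαq-Rluc, Gβ3 and Gγ9-GFP, BRET read with coelenterazine 400a (5 µM) across a compound dilution series in duplicate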
Procedure: as §1

[3] = molecular target: T2, dopamine D2 receptors (Homo sapiens (Human), UniProt P14416); test: Affinity for dopamine D2 receptors, radioligand competition with [3H]-Methylspiperone; assay type: binding; conditions: 293T membrane transiently expressing D2
T2 sequence (P14416 whole entry): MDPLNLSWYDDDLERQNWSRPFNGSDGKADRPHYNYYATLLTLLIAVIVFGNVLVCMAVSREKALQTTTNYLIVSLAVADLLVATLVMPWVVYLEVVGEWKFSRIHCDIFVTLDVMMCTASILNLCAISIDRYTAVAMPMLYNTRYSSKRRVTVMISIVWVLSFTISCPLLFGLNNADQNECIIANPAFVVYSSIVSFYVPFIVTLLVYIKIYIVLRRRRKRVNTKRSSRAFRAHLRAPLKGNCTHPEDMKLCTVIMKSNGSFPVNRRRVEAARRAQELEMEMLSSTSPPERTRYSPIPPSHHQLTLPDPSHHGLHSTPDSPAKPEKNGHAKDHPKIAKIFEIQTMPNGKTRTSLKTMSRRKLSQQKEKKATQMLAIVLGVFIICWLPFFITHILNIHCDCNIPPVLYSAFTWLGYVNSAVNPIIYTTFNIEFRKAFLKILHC
Procedure: The affinity of the compounds of the present disclosure for the dopamine D2 receptors was determined by the method of radioligand competition experiment. In the first step, a cell membrane component containing specific dopamine D2 receptors was prepared. A 10 cm culture dish was used for transfection with 10 ng of the dopamine D2 receptors and 40 μL of polyethylenimine (PEI hereafter). After 48 hours, the 10 cm culture dish was taken out from the cell culture incubator and the cultured cells had expressed the dopamine D2 receptors. A vacuum pump was used to suck off the culture medium, 3 mL of lysis buffer was added to each culture dish, and the cells were placed in a 4° C. cold room for 10 minutes. After the cells were detached, the cells were transferred to a 15 mL centrifuge tube and centrifuged at 1500 rpm for 5 minutes at 4° C., and the supernatant was discarded. The cell pellet was transferred to a tissue homogenizer, and 3 mL of lysis buffer was added and fully ground until the cells were broken. Then, cell suspension was equally aliquoted into several EP tubes, centrifuged at 12000 rpm for 5 minutes at 4° C., and the supernatant was discarded. The precipitate was the cell membrane component containing the dopamine D2 receptors. […] First, a standard binding buffer was added to the cell membrane component containing the dopamine D2 receptors, and the cell membrane was disrupted and resuspended with an electric tissue homogenizer. 30 μL of membrane protein suspension was added to each well of a 96-well plate. Then, 30 μL of different drugs were added to the 96-well plate sequentially from bottom to top to ensure that the final drug concentrations were 10^−5 M, 10^−6 M, 10^−7 M, 10^−8 M, 10^−9 M, and 0 M, with two replicates per treatment. Next, 30 μL of [3H]-Methylspiperone was added to each well of the 96-well plate. The plate was incubated for 2 hours at room temperature in the dark. Detection was conducted. The machine readout value reflected the amount of [3H]-Methylspiperone bound on the membrane, and after further data processing, the affinity Ki values of different compounds for the dopamine D2 receptors were obtained.

[4] = molecular target: T1, 5-HT2A receptor; test: Affinity for 5-HT2A receptors, radioligand competition with [3H]-ketanserin; assay type: binding; conditions: 293T membrane transiently expressing 5-HT2A
Procedure: The affinity of the compounds of the present disclosure for the 5-HT2A receptors was determined by the method of radioligand competition experiment. In the first step, a cell membrane component containing specific 5-HT2A receptor was prepared. A 10 cm dish was used for transfection with 10 ng of the 5-HT2A receptor and 40 μL of PEI. After 48 hours, the 10 cm dish was taken out from the cell incubator and the cultured cells had expressed the 5-HT2A receptor. A vacuum pump was used to suck off the culture medium, 3 mL of lysis buffer was added to each culture dish, and the cells were placed in a 4° C. cold room for 10 minutes. After the cells were detached, the cells were transferred to a 15 mL centrifuge tube and centrifuged at 1500 rpm for 5 minutes at 4° C., and the supernatant was discarded. The cell pellet was transferred to a tissue homogenizer, and 3 mL of lysis buffer was added and fully ground until the cells were broken. Then, cell suspension was equally aliquoted into several EP tubes, centrifuged at 12000 rpm for 5 minutes at 4° C., and the supernatant was discarded. The precipitate was the cell membrane component containing the 5-HT2A receptor. […] First, a standard binding buffer was added to the cell membrane component containing the 5-HT2A receptor, and the cell membrane was disrupted and resuspended with an electric tissue homogenizer. 30 μL of membrane protein suspension was added to each well of a 96-well plate. Then, 30 μL of different drugs were added to the 96-well plate sequentially from bottom to top to ensure that the final drug concentrations were 10^−5 M, 10^−6 M, 10^−7 M, 10^−8 M, 10^−9 M, and 0 M, with two replicates per treatment. Next, 30 μL of [3H]-ketanserin was added to each well of the 96-well plate. The plate was incubated for 2 hours at room temperature in the dark. Detection was conducted. The machine readout value reflected the amount of [3H]-ketanserin bound on the membrane, and after further data processing, the affinity Ki values of different compounds for the 5-HT2A receptor were obtained.

[5] = molecular target: T3, 5-HT1A receptor (Homo sapiens (Human), UniProt P08908); test: Affinity for 5-HT1A receptors, radioligand competition with [3H]-LSD; assay type: binding;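 further: membranes from cells transiently transfected with 5-HT1A receptor, bound [3H]-LSD displaced by compound at 10^-9 to 10^-5 M, 2 h incubation at room temperature in the dark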
T3 sequence (P08908 whole entry, the tested form may be a part): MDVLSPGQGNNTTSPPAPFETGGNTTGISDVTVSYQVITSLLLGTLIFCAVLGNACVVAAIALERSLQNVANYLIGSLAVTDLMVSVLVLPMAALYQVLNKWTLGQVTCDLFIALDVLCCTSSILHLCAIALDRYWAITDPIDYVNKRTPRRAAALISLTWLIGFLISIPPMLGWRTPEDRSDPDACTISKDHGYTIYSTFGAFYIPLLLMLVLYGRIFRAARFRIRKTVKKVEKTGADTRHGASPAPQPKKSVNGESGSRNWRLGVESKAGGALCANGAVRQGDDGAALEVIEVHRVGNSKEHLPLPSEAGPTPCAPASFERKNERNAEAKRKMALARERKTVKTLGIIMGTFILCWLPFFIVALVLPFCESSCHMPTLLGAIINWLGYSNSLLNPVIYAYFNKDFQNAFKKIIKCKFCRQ
Procedure: (§2) The affinity of the compounds of the present disclosure for the 5-HTIA receptors was determined by the method of radioligand competition experiment. In the first step, a cell membrane component containing specific 5-HTIA receptor was prepared. A 10 cm culture dish was used for transfection with 10 ng of the 5-HTIA receptor and 40 μL of PEI. After 48 hours, the 10 cm culture dish was taken out from the cell incubator and the cultured cells had expressed the 5-HTIA receptor. A vacuum pump was used to suck off the culture medium, 3 mL of lysis buffer was added to each culture dish, and the cells were placed in a 4° C. cold room for 10 minutes. After the cells were detached, the cells were transferred to a 15 mL centrifuge tube and centrifuged at 1500 rpm for 5 minutes at 4° C., and the supernatant was discarded. The cell pellet was transferred to a tissue homogenizer, and 3 mL of lysis buffer was added and fully ground until the cells were broken. Then, cell suspension was equally aliquoted into several EP tubes, centrifuged at 12000 rpm for 5 minutes at 4° C., and the supernatant was discarded. The precipitate was the cell membrane component containing the 5-HT1A receptor. […] First, a standard binding buffer was added to the cell membrane component containing the 5-HT1A receptor, and the cell membrane was disrupted and resuspended with an electric tissue homogenizer. 30 μL of membrane protein suspension was added to each well of a 96-well plate. Then, 30 μL of different drugs were added to the 96-well plate sequentially from bottom to top to ensure that the final drug concentrations were 10^−5 M, 10^−6 M, 10^−7 M, 10^−8 M, 10^−9 M, and 0 M, with two replicates per treatment. Next, 30 μL of [3H]-LSD was added to each well of the 96-well plate. The plate was incubated for 2 hours at room temperature in the dark. Detection was conducted. The machine readout value reflected the amount of [3H]-LSD bound on the membrane, and after further data processing, the affinity Ki values of different compounds for the 5-HTIA receptor were obtained. To examine the downstream G protein signaling pathway mediated by 5-HTIA receptors, on the first day, a 6 cm culture dish was used for transfection with 1 μg of 5-HTIA receptors, 1 μg of Gαi1 containing C-terminal seaweed luciferase (Gαi1-Rluc), 1 μg of Gβ3, 1 μg of Gγ9 containing C-terminal green fluorescent protein (Gγ9-GFP), and 16 μL of PEI. The next day, the confluent cells of a 6 cm culture dish were digested and reseeded into a 96-well plate with 100 μL of culture medium was added to each well. On the third day, the drugs were added for test. The 96-well plate was taken out from the cell incubator to decant the culture medium, 40 μL of the substrate coelenterazine 400a (final concentration of 5 μM) was added to each well, and then 20 μL of different drugs were added sequentially from left to right to ensure that the final concentration of the drug decreased gradually from bottom to top, with two replicates per treatment. Finally, the prepared samples were loaded on machine for test. The machine readout value reflected the dissociation of G protein trimer, and thereby indicated the degree of activation of the G protein signaling pathway downstream of the 5-HTIA receptors.

[6] = molecular target: T2, dopamine D2 receptors; test: Dopamine D2 receptor β-arrestin2 BRET (recruitment); assay type: cell-based; conditions: for Emax: read-out: β-arrestin2 BRET (Emax %);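 on all read-outs here: cells co-expressing Rluc-fused D2 receptor, GRK2 and GFP2-fused β-arrestin2, BRET read with coelenterazine 400a after adding drug over a concentration series, in duplicate wells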
Procedure: (§3) To examine the downstream G protein signaling pathway mediated by dopamine D2 receptors, on the first day, a 6 cm culture dish was used for transfection with 1 μg of dopamine D2 receptors, 1 μg of Gαi1 containing a C-terminal seaweed luciferase (Gαi1-Rluc), 1 μg of Gβ3, 1 μg of Gγ9 containing C-terminal green fluorescent protein (Gγ9-GFP), and 16 μL of PEI. At the same time, in order to examine the downstream β-arrestin2 signaling pathway mediated by dopamine D2 receptors, on the first day, a 6 cm culture dish was used for transfection with 500 μg of dopamine D2 receptors containing C-terminal seaweed luciferase (D2-Rluc), 500 μg of G protein-coupled receptor kinase 2 (GRK2), 2500 μg of β-arrestin2 containing N-terminal green fluorescent protein (GFP2-ARRB2) mixed with 14 μL of PEI. The next day, the confluent cells of a 6 cm culture dish were digested and reseeded into a 96-well plate with 100 μL of culture medium added to each well. On the third day, the drugs were added for test. The 96-well plate was taken out from the cell incubator to decant the culture medium, 40 μL of the substrate coelenterazine 400a (final concentration of 5 μM) was added to each well, and then 20 μL of different drugs were added sequentially from left to right to ensure that the final concentration of the drug decreased gradually from bottom to top, with two replicates per treatment. Finally, the prepared samples were loaded on machine for test. The machine readout value reflected the recruitment of β-arrestin2 to the membrane or the dissociation of G protein trimer. The former indicated the degree of activation of the β-arrestin2 signaling pathway downstream of the dopamine D2 receptors, and the latter indicated the degree of activation of the G protein signaling pathway downstream of the dopamine D2 receptors.

[7] = molecular target: T2, dopamine D2 receptors; test: Dopamine D2 receptor Gαi1 BRET (G protein trimer dissociation); assay type: cell-based; conditions: for Emax: read-out: Gαi1 BRET (Emax %);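 on all read-outs here: transfected cells co-expressing D2 receptor, Gαi1-Rluc, Gβ3 and Gγ9-GFP, BRET with coelenterazine 400a at 5 µM read as G protein trimer dissociation, graded drug concentrations in duplicate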
Procedure: as §3

[8] = molecular target: T3, 5-HT1A receptor; test: 5-HT1A receptor Gαi1 BRET (G protein trimer dissociation); assay type: cell-based;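 further: cells transiently co-expressing 5-HT1A receptor, luciferase-tagged Gαi1, Gβ3 and GFP-tagged Gγ9, seeded in 96-well plates for BRET measurement of G protein signaling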
Procedure: as §2

[9] = 5-HT2A receptor, β-arrestin2 pathway
[10] = 5-HT1A receptor, G protein pathway
[11] = 293T membrane transiently expressing 5-HT1A, [3H]-LSD, read-out: 5-HT1A affinity Ki
[12] = D2 receptor, β-arrestin2 pathway, read-out: β-arrestin2 BRET EC50
[13] = D2 receptor, G protein pathway, read-out: Gαi1 BRET EC50
[14] = 5-HT1A receptor, G protein pathway, read-out: Gαi1 BRET EC50
[15] = 5-HT2A receptor, β-arrestin2 pathway, read-out: β-arrestin2 BRET EC50
[16] = 5-HT2A receptor, G protein pathway, read-out: Gαq BRET EC50

SMILES	Emax [1, 9] [%]	Emax [2] [%]	Ki [3] [nM]	Ki [4] [nM]	Emax [6] [%]	Emax [7] [%]	Emax [8, 10] [%]	Ki [5, 11] [nM]	EC50 [6, 12] [nM]	EC50 [7, 13] [nM]	EC50 [8, 14] [nM]	EC50 [1, 15] [nM]	EC50 [2, 16] [nM]	further results
OCCN1CCN2c3cccc4scc(c34)CC2C1 (stereo not drawn) [Compound I-3, 2-(6a,7,9,10-Tetrahydropyrazino[1,2-a]Thieno [4,3,2-De]Quinolin-8 (6H)-Yl) Ethan-1-Ol]	90	43.6	> 10000	4130	14.2	22.5	62							EC50 [1]: 638 nM; EC50 [2]: 1520 nM; Ki [5]: 4410 nM; EC50 [6]: 189 nM; EC50 [7]: 40.7 nM; EC50 [8]: 24200 nM
Fc1ccc(CCN2CCN3c4cccc5scc(c45)CC3C2)cc1 (stereo not drawn) [Compound I-5, 8-(4-Fluorophenylethyl)-6,6a,7,8,9,10-Hexahydropyrazino[1,2-a]Thieno [4,3,2-De]Quinoline]	27.3	50	7500	920	27.2	53.8	91	280	370	193	3130			EC50 ([1]; read-out: β-arrestin2 BRET EC50): 946 nM; EC50 ([2]; read-out: Gαq BRET EC50): 1100 nM
O=c1ccc2ccc(OCCCN3CCN4c5cccc6scc(c56)CC4C3)cc2[nH]1 (stereo not drawn) [Compound I-17, 7-(3-(6a,7,9,10-Tetrahydropyrazino[1,2-a]Thieno [4,3,2-De]Quinolin-8 (6H)-Yl) Propoxy) Quinolin-2 (1H)-One]	92.2	23.4	290	750	66.8	81.6	86	340	91.6	18.5	754	1270	279	
O=C1c2ccccc2CN1CCCCN1CCN2c3cccc4scc(c34)CC2C1 (stereo not drawn) [Compound I-22, 2-(4-(6a,7,9,10-Tetrahydropyrazino[1,2-a]Thieno [4,3,2-De]Quinolin-8 (6H)-Yl)Butyl) Isoindolin-1-One]	64.6	13.8	490	1200	24.8	37	87	350	328	161	1470	3470	966	
O=C(N[C@H]1CC[C@H](CCN2CCN3c4cccc5scc(c45)CC3C2)CC1)N1CCCCC1 (stereo partly drawn) [Compound I-29, N-(4-(2-(6a,7,9,10-Tetrahydropyrazino[1,2-a]Thieno [4,3,2-De]Quinolin-8 (6H)-Yl)Ethyl) Trans-Cyclohexyl) Piperidine-1-Carboxamide]	21.8	8.61	180	450	31.8	45.2	62	120	102	32.2	1480	30.2	299	
COc1cc2c(cc1OC)C(=O)N(CCCCN1CCN3c4cccc5scc(c45)CC3C1)C2 (stereo not drawn) [Compound I-23, 5,6-Dimethoxy-2-(4-(6a,7,9,10-Tetrahydropyrazino[1,2-a]Thieno [4,3,2-De]Quinolin-8 (6H)-Yl)Butyl) Isoindolin-1-One]	138	18.9	750	160	38.5	61.9	71	4130	130	282	6700	8060	245	
CCCN1CCN2c3cccc4scc(c34)CC2C1 (stereo not drawn) [Compound I-2, 8-Propyl-6,6a,7,8,9,10-Hexahydropyrazino[1,2-a]Thieno [4,3,2-De]Quinoline]	66.3	7.6	380	710	27.6	12.1	72	3420	19.3	747	7720	298	2.41	
Fc1ccc(-c2cncc(CN3CCN4c5cccc6scc(c56)CC4C3)c2)cc1 (stereo not drawn) [Compound I-8, 8-((5-(4-Fluorophenyl)Pyridin-3-Yl)Methyl)-6,6a,7,8,9,10-Hexahydropyrazino[1,2-a]Thieno [4,3,2-De]Quinoline]	84.2	21	440	1460	14.1	15.9	53	9850	371	531	16300	1290	4540	
CN(C)C(=O)N[C@H]1CC[C@H](CCN2CCN3c4cccc5scc(c45)CC3C2)CC1 (stereo partly drawn) [Compound I-27, 1,1-Dimethyl-3-(4-(2-(6a, 7,9,10-Tetrahydropyrazino[1,2-a]Thieno [4,3,2-De]Quinolin-8 (6H)-Yl)Ethyl) Trans-Cyclohexyl) Urea]	34.7	9.57	80	210	52.1	73.6	64	160	10.2	3.87	164	13.8	158	
